Patent publication US6717008B2, “Derivatives of C2-substituted indan-1-ol compounds, methods for their preparation and use” (Aventis Pharma Deutschland GmbH, priority 2001, dated 2004)

Tests used:
female NMRI mice = experiment: Anorectic action: cumulative evaporated milk consumption after 24 h feed removal; type: in vivo; settings: dose 10 mg/kg, i.p. or po (route not specified), compared with control animals
Method: The anorectic action was tested on female NMRI mice. After removal of feed for 24 hours, the preparation to be tested was administered intraperitoneally (i.p.) or by gavage (po). The animals were housed singly and, with free access to drinking water, they were offered evaporated milk 30 minutes after administration of the preparation. The consumption of evaporated milk was determined and the general behavior of the animals was monitored every half an hour for 7 hours. The measured milk consumption was compared to that of vehicle-treated control animals.

CC(=O)OC1c2ccc(Cl)cc2CC1S(C)(=O)=O (centres unmarked) [Example 1, 1-Acetoxy-5-chloro-2-methylsulfonylindane]
Reduction in cumulative milk consumption as % of the control (female NMRI mice): 81 % of the control | melting point: 136 °C
